According to US6486326B2, “iso-CBI and iso-CI analogs of CC-1065 duocarmycins” (The Scripps Research Institute, priority 1997, dated 2002):
Where “and” joins values, the source holds several entries; their conditions need not be identical. Equal values may be shown once. Read-outs that look alike come from different tables or passages of the source. Each block holds one compound with its values, some of them ahead of it.

Experiments:
L1210 = test: In vitro cytotoxic activity; assay type: cell-based
[1] = Solvolysis reactivity (UV, 50% CH3OH-aqueous buffer, pH 3); assay type: physicochemical; conditions: for k, solvolysis rate constant: pH 3, 25° C., CH3OH/aqueous buffer
Method: The solvolysis was followed spectrophotometrically by UV with the disappearance of the long-wavelength absorption band of the iso-CBI chromophore (397 nm), FIG. 3.
Solvolysis Reactivity: N-BOC-iso-CBI (31, 0.2 mg) was dissolved in CH3OH (1.5 mL) and mixed with pH 3 aqueous buffer (1.5 mL). The buffer contained 4:1:20 (v/v/v) 0.1 M citric acid, 0.2 M Na2HPO4, and H2O, respectively. The solvolysis solution was sealed and kept at 25° C. protected from light. The UV spectrum was measured at regular intervals every 1 h during the first 24 h, every 4 during the next 72 h, and every 12 h for an additional week. The decrease in the long wavelength absorption at 397 nm was monitored, FIG. 3. […] (FIG. 9).
Similarly, N—CO2Me-iso-CBI (33, 0.2 mg) was dissolved in CH3OH (1.5 mL) and mixed with pH 3 aqueous buffer (1.5 mL). The solvolysis solution was sealed and kept at 25° C. protected from light. The UV spectrum was measured at regular intervals every 1 h during the first 24 h, every 4 h during the next 72 h, and every 12 h for an additional week. The decrease in the long wavelength absorption at 395 nm was monitored, FIG. 3.
Similarly, 35 (0.2 mg) was dissolved in CH3OH (1.5 mL) and mixed with pH 3 aqueous buffer (1.5 mL). The solvolysis solution was sealed and kept at 25° C. protected from light. The UV spectrum was measured at regular intervals every 1 h during the first 12 h, every 2 h for the next 24 h, and every 4 h for an additional day. The decrease in the short wavelength absorption at 239 nm was monitored, FIG. 9.

[2] = Stability of neat sample to ambient light and storage; assay type: physicochemical; conditions: 48 h
Method: Exclusive spirocyclization with cyclopropane formation was observed, and no competitive O-alkylation leading to 36 was detected. However, prolonged exposure of neat 31 to ambient light at 25° C. […] Thus, the handling and storage of the iso-CBI based agents were conducted minimizing their exposure to light typically at subzero temperatures.

[3] = test system: w794 DNA (SV40 DNA segment, 144 bp); test: DNA alkylation selectivity and efficiency, thermally-induced strand cleavage of w794 DNA; assay type: biochemical
Method: FIG. 5 illustrates thermally-induced strand cleavage of w794 DNA (SV40 DNA segment, 144 bp, nucleotide nos. 138-5238); DNA-agent incubation for 24 hours at 25° C., removal of unbound agent and 30 minutes of thermolysis (100° C.), followed by denaturing 8% PAGE and autoradiography, lane 1, control DNA; lanes 2-5, Sanger G, C, A, and T sequencing reactions; lanes 6-7 (−)-iso-CBI-TMI (1×10^−3 and 1×10^−4 M); lanes 8-9, (+)-CBI-TMI (1×10^−5 and 1×10^−4 M); lanes 10-11, (+)-duocarmycin SA (1×10^−5 and 1×10^−6).
FIG. 7 illustrates thermally-induced strand cleavage of w794 DNA (SV40 DNA segment, 144 bp, nucleotide nos. 138-5238); DNA-agent incubation for 24 h at 25° C., removal of unbound agent and 30 min of thermolysis (100° C.), followed by denaturing 8% PAGE and autoradiography; lane 1, control DNA; lanes 2-5, Sanger G, C, A, and T sequencing reactions; lanes 6-8 (+)-duocarmycin SA (1×10^−4 to 1×10^−6 M); lanes9-11, seco-iso-CI-TMI (1×10^−3 to 1×10^−5 M).
DNA Alkylation Selectivity and Efficiency: The DNA alkylation properties of the agents were examined within w794 and w836 duplex DNA for which comparative results are available for related agents. (Boger, D. L., et al., J. Am. Chem. Soc. 1994, 116, 11335; Boger, D. L., et al., J. Am. Chem. Soc. 1994, 116, 6461; and Boger, D. L., et al., J. Am. Chem. Soc. 1995, 117, 11647) The alkylation site identification and the assessment of the relative selectivity among the available sites were obtained by thermally-induced strand cleavage of the singly 5′ end-labeled duplex DNA after exposure to the agents. Following treatment of the end-labeled duplex DNA with a range of agent concentrations and temperatures in the dark, the unbound agent was removed by EtOH precipitation of the DNA Redissolution of the DNA in aqueous buffer, thermolysis (100° C., 30 min) to induce strand cleavage at the sites of DNA alkylation, denaturing high-resolution polyacrylamide gel electrophoresis (PAGE) adjacent to Sanger dideoxynucleotide sequencing standards, and autoradiography led to identification of the DNA cleavage and alkylation sites. The full details of this procedure have been disclosed elsewhere. (Boger, D. L., et al., Tetrahedron 1991, 47, 2661.)
DNA Alkylation Studies: Selectivity and Efficiency: Eppendorf tubes containing singly ^32p 5′-end-labeled double-stranded DNA (9 μL) (Boger, D. L., et al., Tetrahedron 1991, 47, 2661.) in TE buffer (10 mM Tris, 1 mM EDTA, pH 7.5) were treated with the agents in DMSO (1 μL, at the specified concentrations). The solutions were mixed by vortexing and brief centrifugation and subsequently incubated at 4° C., 25° C. or 37° C. for 24-72 h. […]

calf thymus DNA = test: Calf thymus DNA alkylation, quantitation of adenine N3 adduct; assay type: biochemical; conditions: 4° C.
Method: This was addressed through a study of the alkylation of calf thymus DNA. Optimized conditions for the alkylation were established for (−)-44 on an analytical scale (100 μg of agent). For this purpose, the long-wavelength UV absorption of the agent and the adduct provided a useful quantitative measure of the adenine adduct, unreacted starting material and any side products (solvolysis or rearrangement), Table 3. Analytical HPLC analysis was used to confirm the identity of the products through correlation of retention times and UV spectral data with authentic materials. The preparative DNA alkylation reaction and subsequent isolation of (+)-66 was carried out under conditions determined to provide complete consumption of the agent in the presence of a large excess of DNA Thus, extraction (EtOAc) of the aqueous buffer solution containing calf thymus DNA following alkylation (4° C., 72 h, 150 bp) afforded no recovered (−)-44, and only a small amount (<5%) of the rearranged product 65. Conducting the reaction at 4° C. in the presence of a large excess of DNA precluded competitive solvolysis. Thermal treatment of the alkylated DNA in aqueous 10 mM sodium phosphate buffer (100° C., 30 min, pH 7.0) followed by EtOAc extraction provided 66 in 90-95% conversion, ≧95% purity (by HPLC). Repeating this thermal treatment provided little or no additional adduct. No trace of a competing guanine adduct could be detected. This high conversion to a single adduct established that 44 participates exclusively in the adenine N3 alkylation reaction under the conditions examined.

[4] = pH 3; comparison agents 55-61; cited from earlier work
[5] = cytotoxic activity, read-out: IC50
[6] = L1210, seco precursor, read-out: IC50, L1210

Compound: 2-[((E)-3-(2-Methoxyphenyl)propenyl)carbonyl]-1,2,9,9a-tetrahydrocyclopropa[c]benzo[f]indol-1-one [compound 48]
cytotoxic potency, less potent than 44 and 46 (L1210): 40-50 ×

solvolysis reactivity relative to N-BOC-CBI / corresponding CBI-based agents (more reactive, less stable) ([1]; pH 3): 5 × | k, solvolysis rate constant [1]: 6.98e-06 s⁻¹ and 6.97e-06 s⁻¹ | stability of neat sample protected from light ([2]; protected from light by foil): remained unchanged
Compound: CC(C)(C)OC(=O)N1CC2CC23C(=O)c2ccccc2C=C13 (racemic) [compound 31, 2-(tert-Butyloxycarbonyl)-1,2,9,9a-tetrahydrocyclopropa[c]benzo[f]indol-8-one]
cytotoxic potency of unnatural enantiomer relative to natural enantiomer (slightly more potent) (L1210): 1-2 × | stability of neat sample exposed to ambient light ([2]; ambient light, 25° C.): carbonylcyclopropane rearrangement to form 36

k, solvolysis rate constant [1]: 6.4e-06 s⁻¹
Compound: COC(=O)N1CC2CC23C(=O)c2ccccc2C=C13 (racemic) [compound 33, 2-(Methoxycarbonyl)-1,2,9,9a-tetrahydrocyclopropa[c]benzo[f]indol-8-one]

Compound: COc1cc2cc(C(=O)N3CC4CC45C(=O)c4ccccc4C=C35)[nH]c2c(OC)c1OC (racemic) [compound 44, 2-[(5,6,7-Trimethoxyindol-2-yl)carbonyl]-1,2,9,9a-tetrahydrocyclopropa[c]benzo[f]indol-8-one]
DNA alkylation sequence selectivity compared with (+)-duocarmycin SA [3]: same sequence selectivity | adenine adduct 66 (calf thymus DNA; 72 h, 75 base-pair equiv, analytical scale, HPLC/UV): 94% | adenine adduct 66 (calf thymus DNA; 72 h, 150 base-pair equiv, analytical scale, HPLC/UV): 95% | adenine adduct 66 (calf thymus DNA; 72 h, 150 base-pair equiv, preparative scale, isolation and weight): 92% | adenine adduct 66 (calf thymus DNA; 120 h, 150 base-pair equiv, preparative scale, isolation and weight): 95% | cytotoxic potency, 44 compared with 46 (L1210): equipotent

Compound: COc1ccc2[nH]c(C(=O)N3CC4CC45C(=O)c4ccccc4C=C35)cc2c1 (racemic) [compound 46, 2-[(5-Methoxyindol-2-yl)carbonyl]-1,2,9,9a-tetrahydrocyclopropa[c]benzo[f]indol-8-one]
cytotoxic potency, 44 compared with 46 (L1210): equipotent

Compound: NC(=O)N1CCc2c1ccc1[nH]c(C(=O)N3CC4CC45C(=O)c4ccccc4C=C35)cc21 (racemic) [compound 52, 2-[(3-Carbamoyl-1,2-dihydro-3H-pyrrolo[3,2-e]indol-7-yl)carbonyl]-2,9,9a-tetrahydrocyclopropa[c]benzo[f]indol-8-one]
IC50 (L1210; [5]): 0.2 nM

Compound: NC(=O)N1CCc2c1ccc1[nH]c(C(=O)N3CCc4c3ccc3[nH]c(C(=O)N5CC6CC67C(=O)c6ccccc6C=C57)cc43)cc21 (racemic) [compound 54, 2-{[3-[N-(3-Carbamoyl-1,2-dihydro-3H-pyrrolo[3,2-e]indol-7-yl)carbonyl]-1,2-dihydro-3H-pyrrolo[3,2-e]indol-7-yl]carbonyl}-1,2,9,9a-tetrahydrocyclopropa[c]benzo[f]indol-1-one]
IC50 (L1210; [5]): 0.05 nM

Compound: COc1ccc2c(c1)C13CC1CN(C(=O)OC(C)(C)C)C3=CC2=O (racemic) [compound 59]
k, solvolysis rate constant [4]: 1.75e-06 s⁻¹

Compound: CC(C)(C)OC(=O)N1CC2CC23C1=CC(=O)c1ccc(C#N)cc13 (racemic) [compound 60]
k, solvolysis rate constant [4]: 9.9e-07 s⁻¹

Compound: CC(C)(C)OC(=O)N1CC2CC23C=CC(=O)C=C13 (racemic) [compound 61]
k, solvolysis rate constant [4]: 0.0198 s⁻¹

Compound: CC(C)(C)OC(=O)N1CC(COS(C)(=O)=O)c2c(O)cccc21 (stereo not shown) [compound 19]
IC50 (L1210; [6]): 10000 nM

Compound: COc1cc2cc(C(=O)N3CC(COS(C)(=O)=O)c4c(O)cccc43)[nH]c2c(OC)c1OC (stereo not shown) [compound 20]
DNA alkylation efficiency, less efficient than (+)-duocarmycin SA ([3]; 24 h, 25° C., seco agent): 10 × | IC50 (L1210; [6]): 6 nM

solvolysis reactivity relative to 31 or 33 (more reactive) ([1]; pH 3): 5-6 × | k, solvolysis rate constant [1]: 3.8e-05 s⁻¹
Compound: O=C1C2=NCC3CC23C(=O)c2ccccc21 (stereo not shown) [compound 35, 9,9a-1H-Dihydrocyclopropa[c]benzo[f]indol-3,8-dione]

Compound: Cc1c[nH]c2c1C13CC1CN(C(=O)OC(C)(C)C)C3=CC2=O (stereo not shown) [compound 55]
k, solvolysis rate constant [4]: 5.26e-06 s⁻¹

Compound: COC(=O)C1(C)NC2=C(C1=O)C13CC1CN(C(=O)OC(C)(C)C)C3=CC2=O (stereo not shown) [compound 56]
k, solvolysis rate constant [4]: 1.75e-05 s⁻¹

Compound: COC(=O)c1cc2c([nH]1)C(=O)C=C1N(C(=O)OC(C)(C)C)CC3CC123 (stereo not shown) [compound 57]
k, solvolysis rate constant [4]: 1.08e-06 s⁻¹

Compound: CC(C)(C)OC(=O)N1CC2CC23C1=CC(=O)c1ccccc13 (stereo not shown) [compound 58]
k, solvolysis rate constant [4]: 1.45e-06 s⁻¹
